Biological target: T1, cloned human CRTH2 receptor (Homo sapiens, UniProt Q9Y5Y4)
T1 construct: purchased Biosignal; host or cells: HEK-293 cells stably expressing human CRTH2 and G-alpha-16 (membranes)
T1 sequence (Q9Y5Y4 1-395): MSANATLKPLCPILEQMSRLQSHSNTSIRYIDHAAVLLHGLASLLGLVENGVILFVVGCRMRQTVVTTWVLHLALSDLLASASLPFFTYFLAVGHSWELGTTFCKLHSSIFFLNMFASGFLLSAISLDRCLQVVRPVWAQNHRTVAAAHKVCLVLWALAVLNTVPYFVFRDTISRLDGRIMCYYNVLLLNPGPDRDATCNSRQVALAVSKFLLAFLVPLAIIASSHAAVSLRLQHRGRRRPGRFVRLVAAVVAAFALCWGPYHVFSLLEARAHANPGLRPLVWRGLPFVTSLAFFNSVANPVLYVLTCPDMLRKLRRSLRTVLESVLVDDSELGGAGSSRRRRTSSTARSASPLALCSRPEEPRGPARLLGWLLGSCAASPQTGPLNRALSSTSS
Assay: Radioligand membrane binding assay: inhibition of [3H] PGD2 binding to CRTH2 (Scintillation Proximity Assay)
Settings: inhibition of [3H] PGD2 binding to membranes of HEK-293 cells stably expressing human CRTH2; SPA; 10 point curve from 10 μM; room temperature, approximately 2 hours
Description: This radioligand membrane binding assay evaluates the ability of compounds to inhibit [^3H] Prostaglandin D2 (PGD2) binding to the cloned human CRTH2 receptor stably expressed in HEK-293 cells (expressing human CRTh2 receptor and α subunit or the heteronimeric G protein 16 were prepared by Biosignal Company) using Scintillation Proximity Assay.
A binding buffer containing 50 mM Tris-HCl (pH 7.5), 5 mM MgCl2 and 1 mM EDTA was prepared immediately prior to performing the assay. A bead/membrane solution at twice the final assay concentration comprising membranes (membranes bought from Biosignal) from the HEK-293 cells cloned to express CRTH2 receptor bound to and [3H] PGD2 at twotimes the final assay concentration were prepared and stored on ice before adding to wells. Cold PGD2 at twenty times the final assay concentration was prepared and stored on ice before adding to wells defining non-specific binding (NSB) corning plates #3653 were used for this assay.
10 mM stock concentrations of compounds in 100% DMSO were prepared and stored at room temperature. A 10 point concentration response curve was then constructed for each compound, starting at 10 μM (final assay concentration). The compounds were prepared at 40 times final assay concentrations with nine consequent-3-fold dilutions.
0.1 μl of each concentration of compound were added to the appropriate well of the 384 plate and 2 μl of cold PGD2 was added into the wells defining NSB. 20 μl of [^3H] PGD2 and then 20 μl of 2× of bead/membrane solution were then added to each well.
The plates were allowed to incubate at room temperature for approximately 2 hours and then counted on Packard Topcount using SPA tritium protocol for 1 minute/well.
The percent inhibition of PGD2 binding (PGD2 used at the KD value or lower) to the HEK-293 cell membranes was determined, the assay was always run as duplicate for n=1 for a total of n=2.

Ki [µM]	SMILES
< 10	CCOC(=O)C(C)(C)Oc1ccc2c(c1)[C@H](N(C(=O)CC)c1ccc(Cl)cc1)C[C@H](C)N2C(=O)c1ccc(F)cc1 (racemic) [Compound B-64, (±)-Cis-2-[4-[(4-chloro-phenyl)-propionyl-amino]-1-(4-fluoro-benzoyl)-2-methyl-1,2,3,4-tetrahydro-quinolin-6-yloxy]-2-methyl-propionic acid ethyl ester]
< 10	CCC(=O)N(c1ccc(Cl)cc1)[C@@H]1C[C@H](C(F)(F)F)N(C(=O)c2ccco2)c2ccc(OC)cc21 (racemic) [Compound B-111, (±)-Cis-N-(4-chloro-phenyl)-N-[1-(furan-2-carbonyl)-6-methoxy-2-trifluoromethyl-1,2,3,4-tetrahydro-quinolin-4-yl]-propionamide]
< 10	CCC(=O)N(c1ccc(Cl)cc1)[C@@H]1C[C@H](Cc2ccccc2)N(C(=O)c2ccc(F)cc2)c2ccccc21 (racemic) [Compound B-112, (±)-Cis-N-[2-benzyl-1-(4-fluoro-benzoyl)-1,2,3,4-tetrahydro-quinolin-4-yl]-N-(4-chloro-phenyl)-propionamide]
< 10	CCC(=O)N(c1ccc(Cl)cc1)[C@@H]1C[C@H](C)N(C(=O)c2ccc(F)cc2)c2ccc(OCCN(CC)CC)cc21 (racemic) [Compound B-63, (±)-Cis-N-(4-Chloro-phenyl)-N-[6-(2-diethylamino-ethoxy)-1-(4-fluoro-benzoyl)-2-methyl-1,2,3,4-tetrahydro-quinolin-4-yl]-propionamide]
< 10	CC(=O)N(c1ccccc1)[C@@H]1C[C@H](C)N(C(=O)c2cc(F)c(F)c(F)c2)c2ccccc21 (racemic) [Compound A-20, (±)-Cis-N-[2-methyl-1-(3,4,5-trifluoro-benzoyl)-1,2,3,4-tetrahydro-quinolin-4-yl]-N-phenyl-acetamide]
< 10	CC(=O)N(c1ccc(Cl)cc1)[C@H]1C[C@@H](C)N(C(=O)c2cccs2)c2ccccc21 [Compound B-7, (2R,4S)-cis-N-(4-chloro-phenyl)-N-[2-methyl-1-(thiophene-2-carbonyl)-1,2,3,4-tetrahydro-quinolin-4-yl]-acetamide]
< 10	CCC(=O)N(c1ccc(Cl)cc1)[C@@H]1C[C@H](C)N(C(=O)c2ccc(F)cc2)c2ccc(N3CCOCC3)cc21 (racemic) [Compound B-70, (±)-Cis-N-(4-chloro-phenyl)-N-[1-(4-fluoro-benzoyl)-2-methyl-6-morpholin-4-yl-1,2,3,4-tetrahydro-quinolin-4-yl]-propionamide]
< 10	CC(=O)N(c1ccc(Cl)cc1)[C@@H]1C[C@H](C)N(C(=O)c2ccc(/C=C/C(=O)O)cc2)c2ccccc21 [Compound C-33, (2S,4R)-3-(4-{4-[Acetyl-(4-chloro-phenyl)-amino]-2-methyl-3,4-dihydro-2H-quinoline-1-carbonyl}-phenyl)-acrylic acid]
< 10	COc1ccc(C(=O)N2c3ccccc3[C@H](N(C(C)=O)c3ccc(C(=O)O)cc3)C[C@@H]2C)cc1 [Compound C-37, (2S,4R)-4-{Acetyl-[1-(4-methoxy-benzoyl)-2-methyl-1,2,3,4-tetrahydro-quinolin-4-yl]-amino}-benzoic acid]
< 10	CCC(=O)N(c1ccc(Cl)cc1)[C@@H]1C[C@H](C)N(C(=O)c2ccc(F)cc2)c2ccc(OC)cc21 (racemic) [Compound B-59, (±)-Cis-N-(4-chloro-phenyl)-N-[1-(4-fluoro-benzoyl)-6-methoxy-2-methyl-1,2,3,4-tetrahydro-quinolin-4-yl]-propionamide]
< 10	CCC(=O)OC[C@H]1C[C@@H](N(C(=O)CC)c2ccc(Cl)cc2)c2ccccc2N1C(=O)c1ccc(F)cc1 (racemic) [Compound B-104, (±)-Cis-propionic acid 4-[(4-chloro-phenyl)-propionyl-amino]-1-(4-fluoro-benzoyl)-1,2,3,4-tetrahydro-quinolin-2-ylmethyl ester]
< 10	COc1ccc(C(=O)N2c3ccccc3[C@H](N(C(C)=O)c3cccc(C(=O)O)c3)C[C@@H]2C)cc1 (racemic) [Compound B-40, (±)-Cis-3-{acetyl-[1-(4-methoxy-benzoyl)-2-methyl-1,2,3,4-tetrahydro-quinolin-4-yl]-amino}-benzoic acid]
< 10	CC(=O)N(c1ccc(Cl)cc1)[C@H]1C[C@@H](C)N(C(=O)c2ccc(C)s2)c2ccccc21 [Compound B-28, (2R,4S)-cis-N-(4-Chloro-phenyl)-N-[2-methyl-1-(5-methyl-thiophene-2-carbonyl)-1,2,3,4-tetrahydro-quinolin-4-yl]-acetamide]
< 10	C[C@H]1C[C@@H](N(C(=O)COc2ccccc2)c2ccccc2)c2ccccc2N1C(=O)c1ccc(F)cc1 (racemic) [Compound A-72, (±)-Cis-N-[1-(4-fluoro-benzoyl)-2-methyl-1,2,3,4-tetrahydro-quinolin-4-yl]-2-phenoxy-N-phenyl-acetamide]
< 10	COc1ccc(C(=O)N2c3ccccc3[C@H](N(C(C)=O)c3cccc(CN)c3)C[C@@H]2C)cc1 [Compound C-38, (2S,4R)-N-(3-Aminomethyl-phenyl)-N-[1-(4-methoxy-benzoyl)-2-methyl-1,2,3,4-tetrahydro-quinolin-4-yl]-acetamide]
< 60	CC(=O)N(c1ccccc1)[C@H]1C[C@@H](C)N(C(=O)c2ccc(F)cc2)c2ccccc21 [Compound A-58]
< 10	CCC(=O)N(c1ccccc1)C1CC(C)N(C(=O)C2CN(Cc3ccccc3)CCO2)c2ccccc21 (racemic) [Compound A-81, (±)-Cis-N-[1-(4-benzyl-morpholine-2-carbonyl)-2-methyl-1,2,3,4-tetrahydro-quinolin-4-yl]-N-phenyl-propionamide]
< 10	CCC(=O)N(c1ccc(Cl)cc1)[C@@H]1C[C@H](CN(CC)CC)N(C(=O)c2ccc(F)cc2)c2ccccc21 (racemic) [Compound B-106, (±)-Cis-N-(4-chloro-phenyl)-N-[2-diethylaminomethyl-1-(4-fluoro-benzoyl)-1,2,3,4-tetrahydro-quinolin-4-yl]-propionamide]
< 10	CCC(=O)N(c1ccc(Cl)cc1)[C@@H]1C[C@H](C(F)(F)F)N(C(=O)c2cccc(OC)c2)c2ccc(OC)cc21 (racemic) [Compound B-110, (±)-Cis-N-(4-chloro-phenyl)-N-[6-methoxy-1-(3-methoxy-benzoyl)-2-trifluoromethyl-1,2,3,4-tetrahydro-quinolin-4-yl]-propionamide]
< 10	COc1ccc(C(=O)N2c3ccccc3[C@H](N(C(C)=O)c3ccc(CC(=O)O)cc3)C[C@@H]2C)cc1 (racemic) [Compound B-39, (±)-Cis-(4-{acetyl-[1-(4-methoxy-benzoyl)-2-methyl-1,2,3,4-tetrahydro-quinolin-4-yl]-amino}-phenyl)-acetic acid]
< 10	COc1ccc(C(=O)N2c3ccccc3[C@H](N(C(C)=O)c3ccc(CCC(=O)O)cc3)C[C@@H]2C)cc1 [Compound D-6, (2S,4R)-3-(4-{Acetyl-[1-(4-methoxy-benzoyl)-2-methyl-1,2,3,4-tetrahydro-quinolin-4-yl]-amino}-phenyl)-propionic acid]
< 10	CC(=O)N(c1ccccc1)[C@@H]1C[C@H](C)N(C(=O)c2snnc2C)c2ccccc21 (racemic) [Compound A-17, (±)-Cis-N-[2-methyl-1-(4-methyl-[1,2,3]thiadiazole-5-carbonyl)-1,2,3,4-tetrahydro-quinolin-4-yl]-N-phenyl-acetamide]
< 10	CC(=O)N(c1ccccc1)C1CC(C)N(C(=O)c2sc(-c3ccccc3)nc2C)c2ccccc21 (stereo not shown) [Compound A-156]
< 60	CC(=O)N(c1ccccc1)[C@@H]1C[C@H](C)N(C(=O)c2c(C)noc2C)c2ccccc21 (racemic) [Compound A-154, (±)-Cis-N-[1-(3,5-dimethyl-isoxazole-4-carbonyl)-2-methyl-1,2,3,4-tetrahydro-quinolin-4-yl]-N-phenyl-acetamide]
< 10	CCC(=O)N(c1ccccc1)[C@H]1C[C@@H](C)N(C(=O)c2ccc(N3CCOCC3)cc2)c2ccccc21 [Compound A-120, (2R,4S)-cis-N-[2-methyl-1-(4-morpholin-4-yl-benzoyl)-1,2,3,4-tetrahydro-quinolin-4-yl]-N-phenyl-propionamide]

From US7504508B2, “PGD2 receptor antagonists for the treatment of inflammatory diseases” (Millennium Pharmaceuticals, Inc., priority 2002, dated 2009)
